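These data come from cells grown in 96-well plates and exposed to compound for 48 hours at five concentrations. GI50 is the concentration that inhibits growth by half.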 Calls of active or inactive are those of the source. Rule as the data show it: active = GI50 up to about 1.1 µM and inactive = higher.
Experiments:
Test in all cases: inhibition of tumour cell growth, NCI panel, 48 h
U-251 = tested on: U-251
IGROV-1 = tested on: IGROV-1
DMS-273 = tested on: DMS-273
KM-20L2 = tested on: KM-20L2
HCT-15 = tested on: HCT-15
EKVX = tested on: EKVX
RXF 631 = tested on: RXF 631
OVCAR-4 = tested on: OVCAR-4
SNB-75 = tested on: SNB-75
M14 = tested on: M14
SW-620 = tested on: SW-620
Malme-3M = tested on: Malme-3M
OVCAR-3 = tested on: OVCAR-3
SNB-78 = tested on: SNB-78
HOP-62 = tested on: HOP-62
OVCAR-8 = tested on: OVCAR-8
SF-539 = tested on: SF-539
DMS-114 = tested on: DMS-114
LXFL 529 = tested on: LXFL 529
SR = tested on: SR
SK-MEL-2 = tested on: SK-MEL-2
NCI-H460 = tested on: NCI-H460
LOX IMVI = tested on: LOX IMVI
SF-268 = tested on: SF-268
SK-MEL-28 = tested on: SK-MEL-28
UACC-62 = tested on: UACC-62
CAKI-1 = tested on: CAKI-1
A498 = tested on: A498
SNB-19 = tested on: SNB-19
COLO 205 = tested on: COLO 205
SK-OV-3 = tested on: SK-OV-3
NCI-H522 = tested on: NCI-H522
A549 = tested on: A549
KM12 = tested on: KM12
OVCAR-5 = tested on: OVCAR-5
XF498 = tested on: XF498
SF-295 = tested on: SF-295
UACC-257 = tested on: UACC-257
HT-29 = tested on: HT-29
UO-31 = tested on: UO-31
K562 = tested on: K562
DLD-1 = tested on: DLD-1
786-0 = tested on: 786-0
ACHN = tested on: ACHN
SN12C = tested on: SN12C
HCT-116 = tested on: HCT-116
HCC 2998 = tested on: HCC 2998
NCI-H226 = tested on: NCI-H226
RXF 393 = tested on: RXF 393
TK-10 = tested on: TK-10
SK-MEL-5 = tested on: SK-MEL-5
MOLT-4 = tested on: MOLT-4
RPMI-8226 = tested on: RPMI-8226
HOP-18 = tested on: HOP-18
M19-MEL = tested on: M19-MEL
HL-60 = tested on: HL-60
NCI-H23 = tested on: NCI-H23
CCRF-CEM = tested on: CCRF-CEM
BT-549 = tested on: BT-549
NCI/ADR-RES = tested on: NCI/ADR-RES
HOP-92 = tested on: HOP-92
MDA-MB-435 = tested on: MDA-MB-435
PC-3 = tested on: PC-3
T47D = tested on: T47D
MCF7 = tested on: MCF7
Hs-578T = tested on: Hs-578T
MDA-MB-231 = tested on: MDA-MB-231
MDA-N = tested on: MDA-N
DU-145 = tested on: DU-145

COC(=O)C(=O)C(C(=O)C=C(C)C)C(=O)C(=O)Nc1cccc(C(C)=O)c1 (configuration not stated)
GI50 (U-251): > 100 µM (inactive) | GI50 (IGROV-1): > 100 µM (inactive) | GI50 (DMS-273): > 100 µM (inactive) | GI50 (KM-20L2): > 100 µM (inactive) | GI50 (HCT-15): > 100 µM | GI50 (EKVX): > 100 µM (inactive) | GI50 (RXF 631): > 100 µM (inactive) | GI50 (OVCAR-4): > 100 µM (inactive) | GI50 (SNB-75): > 100 µM (inactive) | GI50 (M14): > 100 µM (inactive) | GI50 (SW-620): > 100 µM (inactive) | GI50 (Malme-3M): > 100 µM (inactive) | GI50 (OVCAR-3): > 100 µM (inactive) | GI50 (SNB-78): > 100 µM (inactive) | GI50 (HOP-62): > 100 µM (inactive) | GI50 (OVCAR-8): > 100 µM (inactive) | GI50 (SF-539): > 100 µM (inactive) | GI50 (DMS-114): > 100 µM (inactive) | GI50 (LXFL 529): > 100 µM (inactive) | GI50 (SR): > 100 µM (inactive) | GI50 (SK-MEL-2): > 100 µM (inactive) | GI50 (NCI-H460): > 100 µM (inactive) | GI50 (LOX IMVI): > 100 µM (inactive) | GI50 (SF-268): > 100 µM (inactive) | GI50 (SK-MEL-28): > 100 µM (inactive) | GI50 (UACC-62): > 100 µM (inactive) | GI50 (CAKI-1): > 100 µM (inactive) | GI50 (A498): > 100 µM (inactive) | GI50 (SNB-19): > 100 µM (inactive) | GI50 (COLO 205): > 100 µM (inactive) | GI50 (SK-OV-3): > 100 µM (inactive) | GI50 (NCI-H522): > 100 µM (inactive) | GI50 (A549): > 100 µM (inactive) | GI50 (KM12): > 100 µM (inactive) | GI50 (OVCAR-5): > 100 µM (inactive) | GI50 (XF498): > 100 µM (inactive) | GI50 (SF-295): > 100 µM (inactive) | GI50 (UACC-257): > 100 µM (inactive) | GI50 (HT-29): > 100 µM (inactive) | GI50 (UO-31): > 100 µM (inactive) | GI50 (K562): > 100 µM (inactive) | GI50 (DLD-1): > 100 µM (inactive) | GI50 (786-0): > 100 µM (inactive) | GI50 (ACHN): > 100 µM (inactive) | GI50 (SN12C): > 100 µM (inactive) | GI50 (HCT-116): > 100 µM (inactive) | GI50 (HCC 2998): > 100 µM (inactive) | GI50 (NCI-H226): > 100 µM (inactive) | GI50 (RXF 393): > 100 µM (inactive) | GI50 (TK-10): > 100 µM (inactive) | GI50 (SK-MEL-5): > 100 µM (inactive) | GI50 (MOLT-4): > 100 µM (inactive) | GI50 (RPMI-8226): > 100 µM (inactive) | GI50 (HOP-18): > 100 µM (inactive) | GI50 (M19-MEL): > 100 µM (inactive) | GI50 (HL-60): > 100 µM (inactive) | GI50 (NCI-H23): > 100 µM (inactive) | GI50 (CCRF-CEM): > 100 µM (inactive)

N#CC1(C2SCC[S+]2[O-])C2=C(C(=O)c3ccccc3C2=O)N2CCCC21 (configuration not stated)
GI50 (U-251): 3.4 µM (inactive) | GI50 (IGROV-1): 1.75 µM (inactive) | GI50 (DMS-273): 3.03 µM (inactive) | GI50 (BT-549): 2.29 µM (inactive) | GI50 (KM-20L2): 4.97 µM (inactive) | GI50 (NCI/ADR-RES): 3.12 µM (inactive) | GI50 (HCT-15): 2.21 µM | GI50 (HOP-92): 3.85 µM (inactive) | GI50 (EKVX): 4.8 µM (inactive) | GI50 (RXF 631): 1.46 µM (inactive) | GI50 (OVCAR-4): 1.7 µM (inactive) | GI50 (SNB-75): 3.23 µM (inactive) | GI50 (M14): 1.17 µM (inactive) | GI50 (MDA-MB-435): 0.497 µM (active) | GI50 (SW-620): 2.13 µM (inactive) | GI50 (Malme-3M): 0.381 µM (active) | GI50 (OVCAR-3): 0.583 µM (active) | GI50 (SNB-78): 1.49 µM (inactive) | GI50 (HOP-62): 5.28 µM (inactive) | GI50 (OVCAR-8): 2.18 µM (inactive) | GI50 (SF-539): 3 µM (inactive) | GI50 (DMS-114): 2.14 µM (inactive) | GI50 (LXFL 529): 2.74 µM (inactive) | GI50 (SR): 0.935 µM (active) | GI50 (SK-MEL-2): 1.69 µM (inactive) | GI50 (NCI-H460): 2.32 µM (inactive) | GI50 (LOX IMVI): 0.986 µM (active) | GI50 (SF-268): 3.01 µM (inactive) | GI50 (SK-MEL-28): 2.85 µM (inactive) | GI50 (UACC-62): 2.85 µM (inactive) | GI50 (PC-3): 1.88 µM (inactive) | GI50 (CAKI-1): 4.42 µM (inactive) | GI50 (A498): 4.07 µM (inactive) | GI50 (SNB-19): 6.35 µM (inactive) | GI50 (COLO 205): 2.24 µM (inactive) | GI50 (SK-OV-3): 15.3 µM (inactive) | GI50 (NCI-H522): 2.11 µM (inactive) | GI50 (T47D): 3.3 µM (inactive) | GI50 (A549): 2.1 µM (inactive) | GI50 (KM12): 3.02 µM (inactive) | GI50 (OVCAR-5): 3.78 µM (inactive) | GI50 (MCF7): 1.63 µM (inactive) | GI50 (XF498): 2.55 µM (inactive) | GI50 (SF-295): 1.99 µM (inactive) | GI50 (UACC-257): 1.36 µM (inactive) | GI50 (HT-29): 3.59 µM (inactive) | GI50 (UO-31): 4.68 µM (inactive) | GI50 (Hs-578T): 3.46 µM (inactive) | GI50 (K562): 3.38 µM (inactive) | GI50 (DLD-1): 2.74 µM (inactive) | GI50 (786-0): 4.21 µM (inactive) | GI50 (ACHN): 5.52 µM (inactive) | GI50 (SN12C): 2.38 µM (inactive) | GI50 (HCT-116): 2 µM (inactive) | GI50 (HCC 2998): 4.85 µM (inactive) | GI50 (NCI-H226): 3.66 µM (inactive) | GI50 (RXF 393): 0.998 µM (active) | GI50 (MDA-MB-231): 2.17 µM (inactive) | GI50 (TK-10): 8.77 µM (inactive) | GI50 (MDA-N): 0.605 µM (active) | GI50 (SK-MEL-5): 0.364 µM (active) | GI50 (MOLT-4): 3.06 µM (inactive) | GI50 (RPMI-8226): 1.05 µM (active) | GI50 (DU-145): 2.18 µM (inactive) | GI50 (HOP-18): 3.25 µM (inactive) | GI50 (M19-MEL): 0.286 µM (active) | GI50 (HL-60): 1.55 µM (inactive) | GI50 (NCI-H23): 1.11 µM (active) | GI50 (CCRF-CEM): 2.94 µM (inactive)
